We go through one molecule from article PMC4411097, “Pachymic Acid Inhibits Growth and Induces Apoptosis of Pancreatic Cancer In Vitro and In Vivo by Targeting ER Stress” (PLoS ONE, 2015).

One data set concerns MIA PaCa-2 cells. As to the kind of experiment: Apoptosis, Cell Death Detection ELISA (cytoplasmic histone-associated DNA fragments). Conditions: MIA PaCa-2, PA 0–30 μM, 24 h, relative to vehicle-treated cells (=1). The format is cell-based, human. The procedure: (§1) Apoptosis induction in PA-treated cells was assessed by quantitation of cytoplasmic histone-associated DNA fragments and western blotting for PARP cleavage (c-PARP). The Cell Death Detection ELISA^PLUS Kit (Roche, Indianapolis, IN) was used to detect the amount of cytoplasmic histone-associated DNA fragments according to the manufacturer’s instructions and expressed relative to vehicle-treated cells (set equal to 1).
In general terms: ELISA stands for enzyme-linked immunosorbent assay.

The next data set concerns PANC-1 cells. The data set is described as above. Format: cell-based, human. Conditions: PANC-1, PA 0–30 μM, 24 h, relative to vehicle-treated cells (=1). The procedure: as §1
For data set [1], the system named is PARP cleavage (c-PARP) in MIA PaCa-2 cells. Put plainly: Western blot for PARP cleavage (c-PARP). Conditions: MIA PaCa-2, PA 0–30 μM, 24 h. The format is cell-based, human. The procedure:
as §1
(§2) PANC-1, MIA PaCa-2 cells were treated with PA (0–30 μM) for 10 min, 30 min or 24 h, respectively. Whole protein extracts isolated from cells and tumor tissues were prepared and western blot analysis with anti-cleaved PARP, anti-XBP-1s, anti-ATF6, anti-ATF4, anti-Hsp70, anti-CHOP, anti-phospho-eIF2α or anti-eIF2α antibodies were performed as previously described. Western blots were quantified with HP-Scanjet 550c and analyzed by UN-SCAN-IT software (Silk Scientific, Orem, UT). Three independent experiments were done for all the immunoblot studies and quantitative data composed of all the experiments with statistical analysis were added below the representative blot image.

The test system of data set [2] is PARP cleavage (c-PARP) in PANC-1 cells. Put plainly: Western blot for PARP cleavage (c-PARP). Conditions: PANC-1, PA 0–30 μM, 24 h. Format: cell-based, human. The protocol: as §1, §2
Data set [3] has as its system ER stress response proteins in MIA PaCa-2 cells. As to the kind of experiment: Western blot of ER stress response proteins. Format: cell-based, human. The procedure: as §2
Data set [4] relates to ER stress response proteins in PANC-1 cells. As to the kind of experiment: Western blot of ER stress response proteins. Format: cell-based, human. The procedure: as §2
(A western blot detects proteins with antibodies after separation by electrophoresis.)

In data set [5] the test system is MIA PaCa-2 tumor xenograft. As to the kind of experiment: Human pancreatic tumor xenograft experiment. The format is in vivo, female nude mice. To be noted: day 34; for Average tumor volume: control approximately 448 mm^3. The protocol:
Animal experiments were conducted strictly in accordance with the protocol approved by the Animal Research Committee at the Methodist Hospital (protocol no. 2011–07). MIA PaCa-2 cells (3x10^6) in 100 μl DPBS were implanted subcutaneously in the right flank on the ventral side of the 6 weeks old female nude mice (Harlan, Indianapolis, IN, USA). When tumors became palpable after 1–3 weeks (40–60 mm^3), animals were randomly assigned into three groups (n = 15) and received intraperitoneal (i.p.) injection 3 times per week of vehicle or PA (25 mg kg^-1 and 50 mg kg^-1) of body weight for additional 5 weeks. Tumor sizes were measured 3 times per week with microcalipers and the tumor volumes were calculated with the standard formula: tumor volume (mm^3) = L x W^2 x 0.5, where L is the length and W is the width of the tumor. At the end of the experiment (Day 35), the mice were euthanized by CO2 inhalation. The tumors were harvested and fixed in 10% neutral-buffered formalin at 4°C for 24 h or snap frozen and stored separately in liquid nitrogen.
A general note: Xenograft models place foreign cells or tissue in a host animal.

The subject of data set [6] is MIA PaCa-2 tumor xenograft. Put plainly: Apoptosis measurement in tumor xenograft (apoptotic bodies, H&E). Format: in vivo, female nude mice. The protocol: All formalin-fixed tumors were embedded in paraffin within 48 h and five-micrometer sections were stained with hematoxylin and eosin (H&E). The slides were viewed under a Leica microscope (Leica Instruments, Melville, NY) and apoptosis in the viable tumor cell area was quantified by counting apoptotic bodies in four 20 x fields of view for n = 6–12 tumors per group by 2 independent observers.

Data set [7] deals with HSPA6 and CHOP in MIA PaCa-2 tumor tissues. As to the kind of experiment: Quantitative RT-PCR of tumor tissues. Format: in vivo, female nude mice. Conditions: 25 mg kg^-1, vs controls. The protocol: The quantitative real-time polymerase chain reaction (qRT-PCR) was performed using ABI PRISM 7900HT Fast Real-Time PCR System (Applied Biosystems, Foster City, CA) according to the manufacturer's instructions. Total RNA was isolated from tumors with RNeasy Mini Kit (Qiagen, Valencia, CA). RNA quality was monitored and quantified using the Qubit 2.0 Fluorometer (Invitrogen, Carlsbad, CA). The RNA samples were reverse transcribed into cDNA using High Capacity cDNA Reverse Transcription Kit (Applied Biosystems, Foster City, CA). The cDNA (100 ng per sample) was subjected to qPCR analysis in triplicate. Analysis of the relative quantity gene expression (RQ) of HSPA6 and CHOP was normalized by ACTB expression and was performed using the 2^-ΔΔCt method.

The test system of data set [8] is ATF4 and CHOP in MIA PaCa-2 tumor tissues. Put plainly: Western blot of tumor tissues. Format: in vivo, female nude mice. Conditions: 25 mg kg^-1, vs controls. The protocol: as §2
A further data set has as its system PANC-1. Details: method as in PMID 23588713. To be noted: PANC-1, 24 h; read-out: IC50-24 h, inhibition of proliferation; cited from earlier work.
A further data set deals with MIA PaCa-2. Details: method as in PMID 23588713. Conditions: MIA PaCa-2, 24 h; read-out: IC50-24 h, inhibition of proliferation; cited from earlier work.
Data set [9] has as its system normal pancreatic duct epithelial cells HPDE-6. On the set-up: method as in PMID 23588713. Conditions: cited from earlier work.
On the set-up of data set [10]: method as in PMID 22213174. Conditions: rats fed by P. cocos; cited from earlier work.
Setting [11] is: 25 mg kg^-1 i.p. 3 times per week.
The mark [12] stands for this setting: 50 mg kg^-1 i.p. 3 times per week.

Regarding `C=C(CC[C@@H](C(=O)O)[C@H]1[C@H](O)C[C@@]2(C)C3=C(CC[C@]12C)[C@@]1(C)CC[C@H](OC(C)=O)C(C)(C)[C@@H]1CC3)C(C)C` [PA, Pachymic acid], the “PA-induced apoptosis vs control” value in the data set with MIA PaCa-2 cells is around 8 fold; in the data set with PANC-1 cells, around 19 fold. The “Increase in expression of PARP cleavage vs vehicle-treated control” value in [1] is around 4 fold; in [2] it was “approximately 3 fold”. Also, the “PA-phosphorylated eIF2α vs control” value in [3] (MIA PaCa-2, 30 μM PA, 10 min) is around 3 fold; in data set [4] (PANC-1, 30 μM PA, 10 min), around 2 fold. The “Activation of XBP1 and ATF4 (protein level)” value was “significantly activated” in data set [3] (MIA PaCa-2, PA 0–30 μM, 24 h) and “significantly activated” in [4] (PANC-1, PA 0–30 μM, 24 h). Moreover, the entries for the “Inhibition of tumor volume vs control” value in data set [5] (setting [11]) and in data set [5] (setting [12]) were around 75% and around 80%, respectively. Further, the Average tumor volume entry in [5] (setting [11]) is recorded as “about 112 mm^3”; in [5] (setting [12]) it was around 89 mm^3. Besides, the “Increase of apoptotic bodies in tumors vs control” value in [6] (25 mg kg^-1) is on record as “approximately 59%”; in [6] (50 mg kg^-1) it was around 2 fold. Also, the “Significant increase of HSPA6 and CHOP/GADD153 mRNA in tumors” value in data set [7] is “not observed”. Moreover, the “Expression of ATF4 and CHOP proteins in tumors” value in data set [8] was “significant increase”. Besides, the IC50 with PANC-1 is 23.5 µM; with MIA PaCa-2, 26.6 µM. Further, the “Effect on growth of normal pancreatic duct epithelial cells” value in data set [9] is “only slightly affects”. Further, the “Presence in urine and plasma” value in [10] was “detectable”.
